Patent US12729377B2, “RNAi agents and compositions for inhibiting expression of angiopoietin-like 3 (ANGPTL3), and methods of use” (Arrowhead Pharmaceuticals, Inc., priority 2017, dated 2026)
Where “and” joins values, the source holds several entries; their conditions need not be identical. Equal values may be shown once. In the oligonucleotide strings, read from the 5' end, every base follows the letter of its sugar. An asterisk marks phosphorothioate; unmarked linkages are phosphodiester. Other units and linkages are bracketed, terminal groups are in braces. A string of capitals states the bases alone. {NAG37} = tridentate N-acetyl-galactosamine targeting ligand, structure (NAG37)s; [invAb] = inverted abasic unit; m = 2'-O-methyl; f = 2'-fluoro

How the values were obtained:
ANGPTL3 gene = experiment: Example 8: serum triglycerides in cynomolgus monkeys; format: in vivo, cynomolgus macaque (Macaca fascicularis); details: 3.0 mg/kg single SC injection day 1, cynos, n=2
Procedure: Additional ANGPTL3 RNAi agents were evaluated in cynomolgus monkeys. On day 1, cynomolgus macaque (Macaca fascicularis) primates (also referred to herein as “cynos”) were administered a single subcutaneous injection of 0.3 mL/kg (approximately 1-2 mL volume, depending on animal mass) containing 3.0 mg/kg of one of ANGPTL3 RNAi agent AD05577, AD05307, AD05488, AD05654, or AD05659, each formulated in saline.
Two (2) cynos in each group were tested (n=2). Blood samples were drawn and serum samples were analyzed on days −8 (pre-dose), 1 (pre-dose), 8, 15, 22, 29, and 36. Cynos were fasted overnight prior to each collection. ANGPTL3 protein levels in serum were measured by ELISA assay (R&D Systems), according to the manufacturer's recommendations. Triglycerides, total cholesterol, high-density lipoprotein (HDL), and low-density lipoprotein (LDL) in serum were measured on a Cobas® Integra 400 (Roche Diagnostics), according to the manufacturer's recommendations.
The ANGPTL3 protein levels, triglyceride levels, total cholesterol levels, HDL levels, and LDL levels for each animal were normalized. For normalization, the level of ANGPTL3 protein, triglyceride, HDL, and total cholesterol, respectively, for each animal at a time point, was divided by the average pre-treatment level of expression in that animal (in this case at days −8, and 1 (pre-dose)) to determine the ratio of expression “normalized to pre-treatment.”

ANGPTL3 protein [1] = experiment: Example 2: serum ANGPTL3 protein by ELISA in mice; format: in vivo, C57bl/6 mice; details: for Avg ANGPTL3 (Average ANGPTL3 Protein Normalized to Pre-Treatment and Control): 3.0 mg/kg single subcutaneous dose on day 1, serum, female C57bl/6 mice
Procedure: To assess the in vivo activity of ANGPTL3 RNAi agents that are designed to target different positions on the ANGPTL3 gene, six- to eight-week-old female C57bl/6 mice were used. Pre-dose serum samples were taken at day −1 after a four hour fast. At day 1, each mouse was given a single subcutaneous administration of 200 μl containing either 3 mg/kg (mpk) of an ANGPTL3 RNAi agent in D5W (dextrose in 5% water), or control (D5W) with no RNAi agent, according to the dosing groups recited in Table 7.
Each of the RNAi agents included a modified sequence and an N-acetyl-galactosamine-containing targeting ligand conjugated to the 5′ terminal end of the sense strand. (See Tables 3, 4, and 5 for modified sequences and targeting ligand structures). The injections were performed between the skin and muscle (i.e. subcutaneous injections) into the loose skin over the neck and shoulder area. Three (3) mice in each group were tested (n=3). Serum was collected on days 8, […], 22, 29, and day 36 (for Groups 1 and 5-11 only). Mice were fasted for four hours prior to each collection. ANGPTL3 protein levels in serum were measured by ELISA assay (R&D Systems), according to the manufacturer's recommendations. Triglycerides, high-density lipoprotein (HDL), and total cholesterol in serum were measured on a Cobas® Integra 400 (Roche Diagnostics), according to the manufacturer's recommendations.
The ANGPTL3 protein levels, triglyceride levels, HDL levels, and total cholesterol levels for each animal were normalized. For normalization, the level of ANGPTL3 protein, triglyceride, HDL, and total cholesterol, respectively, for each animal at a time point, was divided by the pre-treatment level of expression in that animal (in this case at day −1) to determine the ratio of expression “normalized to pre-treatment.” Expression at a specific time point was then normalized to the D5W control group by dividing the “normalized to pre-treatment” ratio for an individual animal by the mean “normalized to pretreatment” ratio of all mice in the D5W control group.

ANGPTL3 protein [2] = experiment: Example 5: serum ANGPTL3 protein by ELISA in cynomolgus monkeys; format: in vivo, cynomolgus macaque (Macaca fascicularis); details: for Avg ANGPTL3 protein normalized to pre-treatment, individual animal / Avg ANGPTL3 protein normalized to pre-treatment, by group: 3.0 mg/kg single SC injection on day 1, serum; for Avg ANGPTL3 protein normalized to pre-treatment, by group: group average n=2; for reduction in ANGPTL3 protein compared to pre-treatment: all measured time points
Procedure: ANGPTL3 RNAi agents were evaluated in cynomolgus monkeys. On day 1, cynomolgus macaque (Macaca fascicularis) primates (also referred to herein as “cynos”) were administered a single subcutaneous injection of 0.3 mL/kg (approximately 2-3 mL volume, depending on animal mass) containing 3.0 mg/kg of ANGPTL3 RNAi agent AD05308 or AD05418, formulated in saline.
Two (2) cynos in each group were tested (n=2). Blood samples were drawn and serum samples were analyzed on days −37 (pre-dose), −15 (pre-dose), and −1 (pre-dose), 8, 16, 23, 30, and 37. Cynos were fasted overnight prior to each collection. ANGPTL3 protein levels in serum were measured by ELISA assay (R&D Systems), according to the manufacturer's recommendations. The ANGPTL3 protein levels were normalized. For normalization, the level of ANGPTL3 protein for each animal at a time point, was divided by the average pre-treatment level of expression in that animal (in this case at days −37, −15, and −1) to determine the ratio of expression “normalized to pre-treatment.”

[3] = day 29, single 3 mg/kg subcutaneous, C57bl/6 mice
[4] = Day 16, single 3.0 mg/kg subcutaneous, cynomolgus monkeys, 3 mg/kg
[5] = single 3.0 mg/kg subcutaneous, cynomolgus monkeys
[6] = day 37, single 3.0 mg/kg subcutaneous, cynomolgus monkeys

Substance: AD05488: RNAi agent duplex: antisense AM07235-AS, sense AM07234-SS (antisense mU*fA*mC*fUmGfAmUfCmAfAmAfUmAfUmGfUmUfGmAfG*mC; sense {NAG37}*[invAb]*mGmCmUmCmAmAmCmAfUfAfUmUmUmGmAmUmCmAmGmUmA*[invAb])
- Avg TG normalized to pre-treatment (ANGPTL3 gene; Day 8): 0.727
- Avg TG normalized to pre-treatment (ANGPTL3 gene; Day 15): 0.586
- Avg TG normalized to pre-treatment (ANGPTL3 gene; Day 22): 0.399
- Avg TG normalized to pre-treatment (ANGPTL3 gene; Day 29): 0.534
- Avg TG normalized to pre-treatment (ANGPTL3 gene; Day 36): 0.364

Substance: AD05307: RNAi agent duplex: antisense AM07001-AS, sense AM07000-SS (chain 1 mU*fU*mU*fGmAfAmUfUmAfAmUfGmUfCmCfAmUfGmGmG*mC; chain 2 {NAG37}*[invAb]*mGmCmCmCmAmUmGmGfAfCfAmUmUmAmAmUmUmCmAmAmA*[invAb])
- Avg ANGPTL3 (Average ANGPTL3 Protein Normalized to Pre-Treatment and Control) (ANGPTL3 protein [1]; Day 8): 0.117
- Avg ANGPTL3 (Average ANGPTL3 Protein Normalized to Pre-Treatment and Control) (ANGPTL3 protein [1]; Day 13): 0.120
- Avg ANGPTL3 (Average ANGPTL3 Protein Normalized to Pre-Treatment and Control) (ANGPTL3 protein [1]; Day 22): 0.134
- Avg ANGPTL3 (Average ANGPTL3 Protein Normalized to Pre-Treatment and Control) (ANGPTL3 protein [1]; Day 29): 0.206
- Avg ANGPTL3 (Average ANGPTL3 Protein Normalized to Pre-Treatment and Control) (ANGPTL3 protein [1]; Day 36): 0.216
- ANGPTL3 protein normalized to pre-treatment and control (ANGPTL3 protein [1]; [3]): 0.206
- Avg TG normalized to pre-treatment (ANGPTL3 gene; Day 8): 1.157
- Avg TG normalized to pre-treatment (ANGPTL3 gene; Day 15): 1.058
- Avg TG normalized to pre-treatment (ANGPTL3 gene; Day 22): 0.895
- Avg TG normalized to pre-treatment (ANGPTL3 gene; Day 29): 0.969
- Avg TG normalized to pre-treatment (ANGPTL3 gene; Day 36): 0.806

Substance: AD05418: RNAi agent duplex: antisense AM07159-AS, sense AM07158-SS (antisense mU*fU*mU*fGmAfAmUfUmAfAmUfGmUfCmCfAmUfGmGfG*mU; sense {NAG37}*[invAb]*mAmCmCmCmAmUmGmGfAfCfAmUmUmAmAmUmUmCmAmAmA*[invAb])
- Avg ANGPTL3 protein normalized to pre-treatment, individual animal (ANGPTL3 protein [2]; Day 8, Cyno A): 0.585
- Avg ANGPTL3 protein normalized to pre-treatment, individual animal (ANGPTL3 protein [2]; Day 8, Cyno B): 0.503
- Avg ANGPTL3 protein normalized to pre-treatment, by group (ANGPTL3 protein [2]; Day 8): 0.544
- Avg ANGPTL3 protein normalized to pre-treatment, individual animal (ANGPTL3 protein [2]; Day 16, Cyno A): 0.358
- Avg ANGPTL3 protein normalized to pre-treatment, individual animal (ANGPTL3 protein [2]; Day 16, Cyno B): 0.309
- Avg ANGPTL3 protein normalized to pre-treatment, by group (ANGPTL3 protein [2]; Day 16): 0.334
- normalized ANGPTL3 protein level, individual animals (ANGPTL3 protein [2]; [4]): 0.358 and 0.309
- reduction in ANGPTL3 protein, individual animals (ANGPTL3 protein [2]; [4]): approximately 64% and ~69%
- Avg ANGPTL3 protein normalized to pre-treatment, individual animal (ANGPTL3 protein [2]; Day 23, Cyno A): 0.260
- Avg ANGPTL3 protein normalized to pre-treatment, individual animal (ANGPTL3 protein [2]; Day 23, Cyno B): 0.340
- Avg ANGPTL3 protein normalized to pre-treatment, by group (ANGPTL3 protein [2]; Day 23): 0.300
- Avg ANGPTL3 protein normalized to pre-treatment, individual animal (ANGPTL3 protein [2]; Day 30, Cyno A): 0.311
- Avg ANGPTL3 protein normalized to pre-treatment, individual animal (ANGPTL3 protein [2]; Day 30, Cyno B): 0.467
- Avg ANGPTL3 protein normalized to pre-treatment, by group (ANGPTL3 protein [2]; Day 30): 0.389
- Avg ANGPTL3 protein normalized to pre-treatment, individual animal (ANGPTL3 protein [2]; Day 37, Cyno A): 0.212
- Avg ANGPTL3 protein normalized to pre-treatment, individual animal (ANGPTL3 protein [2]; Day 37, Cyno B): 0.328
- Avg ANGPTL3 protein normalized to pre-treatment, by group (ANGPTL3 protein [2]; Day 37): 0.270
- reduction in ANGPTL3 protein compared to pre-treatment (ANGPTL3 protein [2]; [5]): reduction
- average ANGPTL3 protein normalized to pre-treatment (ANGPTL3 protein [2]; [6]): 0.270
- average reduction in ANGPTL protein levels (ANGPTL3 protein [2]; [6]): approximately 73%

Substance: AD05308: RNAi agent duplex: antisense AM07003-AS, sense AM07002-SS (chain 1 mU*fG*mU*fUmGfAmAfUmUfAmAfUmGfUmCfCmAfUmGfG*mA; chain 2 {NAG37}*[invAb]*mUmCmCmAmUmGmGmAfCfAfUmUmAmAmUmUmCmAmAmCmA*[invAb])
- Avg ANGPTL3 (Average ANGPTL3 Protein Normalized to Pre-Treatment and Control) (ANGPTL3 protein [1]; Day 8): 0.106
- Avg ANGPTL3 (Average ANGPTL3 Protein Normalized to Pre-Treatment and Control) (ANGPTL3 protein [1]; Day 13): 0.076
- Avg ANGPTL3 (Average ANGPTL3 Protein Normalized to Pre-Treatment and Control) (ANGPTL3 protein [1]; Day 22): 0.084
- Avg ANGPTL3 (Average ANGPTL3 Protein Normalized to Pre-Treatment and Control) (ANGPTL3 protein [1]; Day 29): 0.088
- Avg ANGPTL3 (Average ANGPTL3 Protein Normalized to Pre-Treatment and Control) (ANGPTL3 protein [1]; Day 36): 0.167
- ANGPTL3 protein normalized to pre-treatment and control (ANGPTL3 protein [1]; [3]): 0.088
- reduction in ANGPTL3 protein compared to control (ANGPTL3 protein [1]; [3]): approximately 91%
- Avg ANGPTL3 protein normalized to pre-treatment, individual animal (ANGPTL3 protein [2]; Day 8, Cyno A): 0.545
- Avg ANGPTL3 protein normalized to pre-treatment, individual animal (ANGPTL3 protein [2]; Day 8, Cyno B): 0.287
- Avg ANGPTL3 protein normalized to pre-treatment, by group (ANGPTL3 protein [2]; Day 8): 0.416
- Avg ANGPTL3 protein normalized to pre-treatment, individual animal (ANGPTL3 protein [2]; Day 16, Cyno A): 0.423
- Avg ANGPTL3 protein normalized to pre-treatment, individual animal (ANGPTL3 protein [2]; Day 16, Cyno B): 0.471
- Avg ANGPTL3 protein normalized to pre-treatment, by group (ANGPTL3 protein [2]; Day 16): 0.447
- Avg ANGPTL3 protein normalized to pre-treatment, individual animal (ANGPTL3 protein [2]; Day 23, Cyno A): 0.832
- Avg ANGPTL3 protein normalized to pre-treatment, individual animal (ANGPTL3 protein [2]; Day 23, Cyno B): 0.465
- Avg ANGPTL3 protein normalized to pre-treatment, by group (ANGPTL3 protein [2]; Day 23): 0.649
- Avg ANGPTL3 protein normalized to pre-treatment, individual animal (ANGPTL3 protein [2]; Day 30, Cyno A): 0.722
- Avg ANGPTL3 protein normalized to pre-treatment, individual animal (ANGPTL3 protein [2]; Day 30, Cyno B): 0.572
- Avg ANGPTL3 protein normalized to pre-treatment, by group (ANGPTL3 protein [2]; Day 30): 0.647
- Avg ANGPTL3 protein normalized to pre-treatment, individual animal (ANGPTL3 protein [2]; Day 37, Cyno A): 0.709
- Avg ANGPTL3 protein normalized to pre-treatment, individual animal (ANGPTL3 protein [2]; Day 37, Cyno B): 0.421
- Avg ANGPTL3 protein normalized to pre-treatment, by group (ANGPTL3 protein [2]; Day 37): 0.565
- reduction in ANGPTL3 protein compared to pre-treatment (ANGPTL3 protein [2]; [5]): reduction
